Active and inactive are the calls of the source.
Tests used:
[1] = target: T1, Oxysterols receptor LXR-beta (Homo sapiens, UniProt P55055); format: functional, cell-based;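 also: agonist activity at LXR measured by a cell-based luminescence readout across a dose range, run as a counterscreen for daf-12 agonists; HEK293 cells with Gal4-LXR fusion and GAL4-driven luciferase reporter; potency for activation of Gal4-LXR reporter so compounds are agonists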
T1 sequence (P55055 whole entry): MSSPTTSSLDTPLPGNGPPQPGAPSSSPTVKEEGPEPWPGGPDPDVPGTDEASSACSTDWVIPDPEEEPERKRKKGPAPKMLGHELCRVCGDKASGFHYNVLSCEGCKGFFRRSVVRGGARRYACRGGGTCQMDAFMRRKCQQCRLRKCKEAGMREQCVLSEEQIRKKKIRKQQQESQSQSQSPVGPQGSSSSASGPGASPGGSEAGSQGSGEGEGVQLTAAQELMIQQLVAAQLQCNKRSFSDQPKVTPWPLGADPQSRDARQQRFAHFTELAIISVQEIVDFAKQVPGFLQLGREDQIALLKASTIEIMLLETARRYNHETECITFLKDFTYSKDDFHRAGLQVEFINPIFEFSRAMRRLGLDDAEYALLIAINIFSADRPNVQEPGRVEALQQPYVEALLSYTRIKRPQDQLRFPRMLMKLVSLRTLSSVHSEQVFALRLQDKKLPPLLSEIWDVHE

Nonstructural protein 1 = Nonstructural protein 1 (Influenza A virus, UniProt Q194T2); format: functional, Influenza A virus (A/California/07/2009(H1N1))
Chain of Nonstructural protein 1 (Q194T2 whole entry): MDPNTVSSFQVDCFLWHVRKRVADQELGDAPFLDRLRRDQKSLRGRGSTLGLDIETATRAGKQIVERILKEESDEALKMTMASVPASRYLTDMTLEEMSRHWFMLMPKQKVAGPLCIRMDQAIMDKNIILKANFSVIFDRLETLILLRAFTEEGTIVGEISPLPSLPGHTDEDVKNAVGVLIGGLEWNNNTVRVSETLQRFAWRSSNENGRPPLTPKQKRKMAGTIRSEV

[2] = target: T2, Short transient receptor potential channel 4 (Mus musculus, UniProt Q9QUQ5); assay: mouse TRPC4 channel activators, dose response, cell-based, HEK293 TRPC4/mu-opioid, Fluo-4 calcium (AID 434937); format: functional
T2 sequence (Q9QUQ5 whole entry): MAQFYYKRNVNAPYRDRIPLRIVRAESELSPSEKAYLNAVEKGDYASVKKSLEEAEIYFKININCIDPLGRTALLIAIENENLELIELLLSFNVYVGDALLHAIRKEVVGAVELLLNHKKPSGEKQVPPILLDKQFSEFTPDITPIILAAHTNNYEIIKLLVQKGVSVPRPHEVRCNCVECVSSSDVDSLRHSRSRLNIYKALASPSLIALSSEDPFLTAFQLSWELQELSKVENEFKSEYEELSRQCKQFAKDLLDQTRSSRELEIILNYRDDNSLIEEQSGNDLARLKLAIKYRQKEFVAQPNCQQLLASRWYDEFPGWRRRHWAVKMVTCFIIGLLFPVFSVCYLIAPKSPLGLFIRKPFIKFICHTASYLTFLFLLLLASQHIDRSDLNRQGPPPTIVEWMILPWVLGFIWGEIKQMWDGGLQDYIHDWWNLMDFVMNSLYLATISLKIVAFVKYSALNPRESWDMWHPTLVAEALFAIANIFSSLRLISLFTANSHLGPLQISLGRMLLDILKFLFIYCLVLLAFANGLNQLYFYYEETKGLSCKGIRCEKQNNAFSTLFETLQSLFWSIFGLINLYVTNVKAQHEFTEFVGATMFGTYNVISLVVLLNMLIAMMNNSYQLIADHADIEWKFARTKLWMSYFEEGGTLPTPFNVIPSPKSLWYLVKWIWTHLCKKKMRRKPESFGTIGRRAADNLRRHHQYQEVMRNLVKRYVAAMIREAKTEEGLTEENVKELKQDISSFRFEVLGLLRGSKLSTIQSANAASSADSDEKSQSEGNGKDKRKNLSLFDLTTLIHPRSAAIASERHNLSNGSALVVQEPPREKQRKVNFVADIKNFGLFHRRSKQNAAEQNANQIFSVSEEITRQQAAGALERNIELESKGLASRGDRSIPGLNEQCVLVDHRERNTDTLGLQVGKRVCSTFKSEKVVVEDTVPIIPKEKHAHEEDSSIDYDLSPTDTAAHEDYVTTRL

[3] = human group III sPLA2 inhibitors, dose response, biochemical, QFRET, IC50 (AID 743457);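 also: green fluorescence rise as the enzyme cleaves BODIPY PC-A2 in liposomes; potency for inhibition of the enzyme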
[4] = target: T3, Probable nicotinate-nucleotide adenylyltransferase (Staphylococcus aureus (strain N315), UniProt P65502); format: functional, Staphylococcus aureus subsp. aureus N315;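 as to IC50 Mean: confirmatory dose-response retesting of NadD inhibitor hits first found in an ultra-high-throughput screen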
T3 sequence (P65502 whole entry): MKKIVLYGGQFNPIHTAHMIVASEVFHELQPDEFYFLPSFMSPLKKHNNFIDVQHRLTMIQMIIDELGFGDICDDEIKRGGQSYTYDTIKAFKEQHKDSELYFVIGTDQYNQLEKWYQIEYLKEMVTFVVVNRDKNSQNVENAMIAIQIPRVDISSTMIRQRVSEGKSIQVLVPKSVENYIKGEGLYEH

[5] = target: T3, Probable nicotinate-nucleotide adenylyltransferase; format: functional, Staphylococcus aureus subsp. aureus N315; conditions: read-out: IC50_Mean
[6] = Counterscreen for inhibitors of Trypanosoma brucei methionyl tRNA synthetase (MetRS): Luminescence-based cell-based high throughput dose response assay to identify compounds that are cytotoxic to Jurkat human T lymphocyte cells.; format: functional
[7] = target: T4, Methionyl-tRNA synthetase, putative (Trypanosoma brucei brucei, UniProt Q38C91); format: functional, Trypanosoma brucei brucei strain 927/4 GUTat10.1
T4 sequence (Q38C91 whole entry): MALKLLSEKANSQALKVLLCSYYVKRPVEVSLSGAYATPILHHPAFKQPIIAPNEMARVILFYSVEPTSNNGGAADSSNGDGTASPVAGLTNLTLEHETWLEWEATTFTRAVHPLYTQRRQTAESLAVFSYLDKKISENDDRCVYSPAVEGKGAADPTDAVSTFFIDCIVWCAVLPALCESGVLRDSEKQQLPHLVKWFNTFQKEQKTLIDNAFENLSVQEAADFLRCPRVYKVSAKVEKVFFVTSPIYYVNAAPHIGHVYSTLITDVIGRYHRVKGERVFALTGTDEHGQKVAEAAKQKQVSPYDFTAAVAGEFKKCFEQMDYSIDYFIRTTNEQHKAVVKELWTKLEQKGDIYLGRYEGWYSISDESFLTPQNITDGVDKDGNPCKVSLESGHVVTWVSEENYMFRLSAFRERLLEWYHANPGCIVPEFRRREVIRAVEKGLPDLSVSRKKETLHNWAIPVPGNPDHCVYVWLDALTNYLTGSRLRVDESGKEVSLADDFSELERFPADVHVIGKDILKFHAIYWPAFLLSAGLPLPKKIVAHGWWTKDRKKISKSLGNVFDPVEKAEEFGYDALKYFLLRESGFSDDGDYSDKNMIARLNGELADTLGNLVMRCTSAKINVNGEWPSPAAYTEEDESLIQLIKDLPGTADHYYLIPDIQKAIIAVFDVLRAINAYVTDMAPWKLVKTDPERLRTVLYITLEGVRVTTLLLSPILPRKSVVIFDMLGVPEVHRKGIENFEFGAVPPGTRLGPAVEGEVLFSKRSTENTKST

[8] = inhibitors of intracellular T. cruzi replication, confirmation, NIH3T3 host cells, beta-gal luminescence (AID 2044); format: functional, cell-based;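 also: intracellular parasites grown in NIH/3T3 mouse fibroblasts as host cells; luminescent beta-galactosidase reporter signal from transgenic T. cruzi replicating inside host cells; inhibitors lower the luminescence signal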
[9] = cytotoxicity toward NIH3T3 fibroblasts, dose response, counter-screen, cell-based, ATP luminescence, mouse fibroblasts (AID 2010); format: functional;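 also: cells exposed to compound for about 90 hours before reading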
[10] = target: T4, Methionyl-tRNA synthetase, putative; format: functional, Trypanosoma brucei brucei strain 927/4 GUTat10.1; remark: listed apart in the source
[11] = Luminescence Cell-Based Dose Confirmation HTS to Identify Activators of 5'UTR Stem-Loop Driven Alpha-Synuclein mRNA Translation in H4 Neuroglioblastoma Cells. [Related pubchem assays: 1829 (Project Summary), 1814 (Primary HTS)]; format: functional
[12] = Luminescence Cell-Based Dose Response HTS to Identify Activators of Luciferase Translation or Activity in H4 […] Cells. [Related pubchem assays: 1829 (Project Summary), 1814 (Primary HTS)]; format: functional
H4 = assay: Luminescence Cell-Based Dose Response HTS to Identify Activators of 5'UTR Stem-Loop Driven Prion Protein mRNA Translation in H4 Neuroglioblastoma Cells. [Related pubchem assays: 1829 (Project Summary), 1814 (Primary HTS)]; format: functional; conditions: Homo sapiens
[13] = microbe, parasite or virus in culture; format: functional; conditions: Mycobacterium tuberculosis
[14] = MDA-MB-231 cell growth inhibition, dose response, cytotoxicity control for RAD54 inhibitor project, CellTiter-Glo luminescence, cherry-pick (AID 651692); format: functional, cell-based
[15] = target: T5, DNA repair and recombination protein RAD54-like (Homo sapiens, UniProt Q92698); assay: inhibitors of human RAD54 branch migration, confirmation, biochemical, fluorescence, cherry-picked samples, dose series (AID 651657); format: functional
T5 sequence (Q92698 whole entry): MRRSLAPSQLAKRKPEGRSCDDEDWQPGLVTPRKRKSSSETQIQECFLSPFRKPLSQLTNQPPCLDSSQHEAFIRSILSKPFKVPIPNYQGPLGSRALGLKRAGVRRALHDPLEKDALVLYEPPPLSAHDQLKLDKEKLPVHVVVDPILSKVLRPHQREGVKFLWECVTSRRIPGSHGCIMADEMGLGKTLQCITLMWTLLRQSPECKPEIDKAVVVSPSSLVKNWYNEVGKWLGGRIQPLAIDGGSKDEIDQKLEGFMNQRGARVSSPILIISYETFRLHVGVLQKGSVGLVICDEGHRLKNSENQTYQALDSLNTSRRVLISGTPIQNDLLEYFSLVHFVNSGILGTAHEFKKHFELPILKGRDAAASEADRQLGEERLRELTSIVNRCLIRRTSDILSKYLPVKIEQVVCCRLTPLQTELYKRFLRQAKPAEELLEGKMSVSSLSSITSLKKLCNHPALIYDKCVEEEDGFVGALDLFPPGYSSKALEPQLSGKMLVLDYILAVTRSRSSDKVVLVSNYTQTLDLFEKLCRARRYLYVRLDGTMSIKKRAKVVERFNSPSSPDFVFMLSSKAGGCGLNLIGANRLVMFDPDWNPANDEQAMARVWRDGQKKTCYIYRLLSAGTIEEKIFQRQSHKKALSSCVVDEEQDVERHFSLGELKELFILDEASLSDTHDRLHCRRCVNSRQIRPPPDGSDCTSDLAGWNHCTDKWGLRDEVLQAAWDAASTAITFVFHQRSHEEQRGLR

[16] = target: T6, DNA repair protein RAD52 homolog (Homo sapiens, UniProt P43351); format: functional, biochemical
T6 sequence (P43351 whole entry): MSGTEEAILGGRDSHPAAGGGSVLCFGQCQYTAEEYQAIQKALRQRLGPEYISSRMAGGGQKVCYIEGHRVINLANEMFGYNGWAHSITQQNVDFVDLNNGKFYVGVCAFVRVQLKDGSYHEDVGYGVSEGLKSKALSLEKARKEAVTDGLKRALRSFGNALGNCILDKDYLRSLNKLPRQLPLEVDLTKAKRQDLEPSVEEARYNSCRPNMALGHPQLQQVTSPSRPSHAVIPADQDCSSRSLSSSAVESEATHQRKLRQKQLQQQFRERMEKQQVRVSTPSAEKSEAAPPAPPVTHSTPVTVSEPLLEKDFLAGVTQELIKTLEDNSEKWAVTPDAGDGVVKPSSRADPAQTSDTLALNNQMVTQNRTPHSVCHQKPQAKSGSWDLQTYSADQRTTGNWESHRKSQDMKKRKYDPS

Mu-type opioid receptor = Mu-type opioid receptor (Homo sapiens, UniProt P35372); format: functional, cell-based;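 also: U2OS cells with beta-arrestin recruitment to OPRM1 by beta-gal complementation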
Chain of Mu-type opioid receptor (P35372 whole entry): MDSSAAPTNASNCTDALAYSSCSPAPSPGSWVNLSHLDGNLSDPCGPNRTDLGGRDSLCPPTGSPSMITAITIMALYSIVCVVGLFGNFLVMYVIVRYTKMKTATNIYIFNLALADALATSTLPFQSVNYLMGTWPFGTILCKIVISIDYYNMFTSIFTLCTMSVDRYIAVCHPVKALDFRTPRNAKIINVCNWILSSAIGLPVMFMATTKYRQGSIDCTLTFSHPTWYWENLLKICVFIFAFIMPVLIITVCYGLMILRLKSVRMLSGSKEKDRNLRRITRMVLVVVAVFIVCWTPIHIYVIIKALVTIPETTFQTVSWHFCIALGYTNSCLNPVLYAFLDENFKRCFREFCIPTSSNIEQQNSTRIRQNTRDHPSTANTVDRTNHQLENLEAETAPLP

[17] = target: 5-hydroxytryptamine receptor 2A (Mus musculus, UniProt P35363); format: functional, cell-based;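 also: CHO-K1 cells with tagged receptor and beta-arrestin; agonist potency measured as compound-induced activation of the receptor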
Chain of 5-hydroxytryptamine receptor 2A (P35363 whole entry): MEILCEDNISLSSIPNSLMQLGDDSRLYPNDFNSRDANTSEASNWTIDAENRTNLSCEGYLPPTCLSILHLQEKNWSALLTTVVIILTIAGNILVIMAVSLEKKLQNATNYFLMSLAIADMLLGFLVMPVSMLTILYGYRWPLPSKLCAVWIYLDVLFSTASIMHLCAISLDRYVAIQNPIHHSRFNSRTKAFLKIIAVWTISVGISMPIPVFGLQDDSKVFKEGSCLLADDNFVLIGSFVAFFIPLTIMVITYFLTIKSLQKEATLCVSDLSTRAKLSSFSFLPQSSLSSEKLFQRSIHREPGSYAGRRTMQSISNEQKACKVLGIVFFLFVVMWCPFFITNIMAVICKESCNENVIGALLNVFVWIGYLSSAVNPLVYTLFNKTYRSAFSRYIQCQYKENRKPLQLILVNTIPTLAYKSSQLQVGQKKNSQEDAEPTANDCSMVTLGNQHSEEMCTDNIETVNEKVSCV

[18] = THP-1 cell cytotoxicity, dose response, cytotoxicity control for non-replicating M. tuberculosis project (AID 489025); format: functional
[19] = Luminescence Cell-Based Dose Retest to Confirm Inhibitors of Cancer Stem Cells. [Related pubchem assays (depositor defined):AID2717, AID2721]; format: functional; conditions: Homo sapiens
[20] = HepG2 cell cytotoxicity, dose response, cytotoxicity control for non-replicating M. tuberculosis project (AID 489018); format: functional; conditions: Mycobacterium tuberculosis
[21] = Vero E6 cell cytotoxicity, dose response, cytotoxicity control for non-replicating M. tuberculosis project, secondary assay (AID 492998); format: functional, VeroE6; conditions: Vero C1008
cells = format: functional

For `Clc1ccccc1Nc1nc2ccccc2o1`, the EC50 [1] was > 67.6 µM (inactive).
For `c1ccc(CSc2ccc(-c3ccccn3)nn2)nc1`, the IC50 (Nonstructural protein 1) was 4.94 µM (active) and the EC50 [1] was > 67.5 µM (inactive).
In the case of `COc1ccc(C(=O)NC(=S)NNC(=O)c2c(-c3ccccc3)noc2C)cc1`, the EC50 [2] is reported as 3.76 µM (active) and the IC50 [3] is reported as 24.2 µM (inactive).
With `Cc1ccc(-c2cc(-c3ccc(C)o3)nc(N)c2C#N)cc1` the IC50 [4] was 1.62 µM (active) and the IC50 [5] was 2.43 µM (active).
With `Cc1cc2c(c(=O)n1CC1CCCO1)C(c1ccc3c(c1)OCO3)C(C#N)=C(N)O2` (stereo not drawn) the IC50 [6] was 83.3 µM (inactive) and the IC50 [7] was 119 µM (inactive).
With `O=C1[C@@H]2Cc3c([nH]c4ccccc34)C(c3cccc([N+](=O)[O-])c3)N2C(=O)CN1C1CCN(Cc2ccccc2)CC1` (stereo partly drawn) the EC50 [8] was 1.8 µM (active), the EC50 [9] was 9.77 µM (active) and the IC50 [10] was 3.18 µM (active). The IC50 [6] was 27.1 µM (inactive) and the IC50 [7] was 1.82 µM (active).
For `Cc1ccc(C(=O)c2oc3ccc(Cl)cc3c2NC(=O)CN2CCN(C)CC2)cc1`, the EC50 [11] was > 120 µM (not active), the EC50 [12] was > 120 µM (not active) and the EC50 (H4) was > 120 µM (not active). The CC50 [13] was 14.2 µM (active), the AC50 [14] was 11.5 µM (active) and the AC50 [15] was 11.8 µM (active). The AC50 [16] was 5.97 µM (active).
For `COc1cccc2c1cc1c(=O)n(CC(=O)N3CCC(C)CC3)nc(C)n12`, the EC50 (Mu-type opioid receptor) was 92.5 µM (inactive) and the EC50 [17] was 13.6 µM (inactive).
With `Cc1cc(C)cc(NC(=O)C(OC(=O)c2ccc(NC(=O)CC#N)cc2)c2ccccc2)c1` (stereo not drawn) the IC50 [4] was 14.6 µM (active) and the IC50 [5] was 22.3 µM (active).
In the case of `O=C1NC[C@H](Cc2ccccc2)N(C[C@@H]2CCCN2C[C@H](Cc2ccccc2)N2C[C@H](Cc3ccc(O)cc3)N(CCc3ccccc3)C(=O)C2=O)C1=O`, the IC50 [4] is reported as 6.91 µM (active) and the IC50 [5] is reported as 30.8 µM (active).
For `CCCN(CCC)CCNC(=O)c1cc2c(-c3ccc(Cl)cc3)nn(C)c2s1`, the CC50 [13] was 15.1 µM (active), the CC50 [18] was 31.6 µM (active) and the AC50 [19] was 3.81 µM (active). The CC50 [20] was 11.8 µM (active), the CC50 [21] was 16.6 µM (active) and the IC50 (cells) was 15.5 µM (active). The AC50 [14] was 37.1 µM (active), the EC50 (Mu-type opioid receptor) was 92.5 µM (inactive) and the EC50 [17] was 6.58 µM (active). For the same compound, the AC50 [15] was 20.9 µM (active) and the AC50 [16] was 14.5 µM (active).
